The source of these data is patent publication US12384789B2, “Compounds for treating Huntington's disease” (PTC Therapeutics, Inc., priority 2017, dated 2025).

The test concerns Endogenous Huntingtin Protein. Briefly: Endogenous Huntingtin Protein Assay (Meso Scale Discovery ELISA-based electrochemiluminescence). The format is cell-based. As to conditions: MSD electrochemiluminescence, Table 1. The method, boiled down:
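MSD electrochemiluminescence sandwich ELISA: MW1 (expanded polyQ) or MAB2166 capture antibody at 1 μg/mL, samples incubated overnight at 4° C. Detection with rabbit monoclonal #5656S then SULFO-TAG anti-rabbit antibody, each 0.25 μg/mL for 1 h at room temperature.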
As to `CCN1CC=C(c2cc(F)c3nc(-c4cc(F)c5nn(C)cc5c4)ncc3c2)CC1` [Compound 201, 6-(1-ethyl-1,2,3,6-tetrahydropyridin-4-yl)-8-fluoro-2-(7-fluoro-2-methyl-2H-indazol-5-yl)quinazoline], the IC50 (usually the concentration needed to halve the response being measured) is at most 100 nM. For the compound `CCN1CCC(c2cc(F)c3nc(-c4cc(F)c5nn(C)cc5c4)ccc3c2)CC1` [Compound 193, 6-(1-ethylpiperidin-4-yl)-8-fluoro-2-(7-fluoro-2-methyl-2H-indazol-5-yl)quinoline], the IC50 was at most 100 nM. Turning to `Cc1cn2nc(-c3cc(F)c4cc(C5CCN(CCO)CC5)nnc4c3)cc(C#N)c2n1` [Compound 178, 6-{5-fluoro-3-[1-(2-hydroxyethyl)piperidin-4-yl]cinnolin-7-yl}-2-methylimidazo[1,2-b]pyridazine-8-carbonitrile], the IC50 was at most 100 nM. Then `Cc1cn2cc(-c3cc(F)c4cc(C5CCNCC5)nnc4c3)ccc2n1` [Compound 210, 5-fluoro-7-(2-methylimidazo[1,2-a]pyridin-6-yl)-3-(piperidin-4-yl)cinnoline], with at most 100 nM.

In the case of `Cn1cc2cc(-c3ccc4cc(C5=CCNCC5)cc(F)c4n3)cc(F)c2n1` [Compound 166, 8-fluoro-2-(7-fluoro-2-methyl-2H-indazol-5-yl)-6-(1,2,3,6-tetrahydropyridin-4-yl)quinoline], the IC50 is at most 100 nM. Then `COc1cc(-c2cc(F)c3cc(C4CCNCC4)nnc3c2)nn2cc(C)nc12` [Compound 106, 5-fluoro-7-(8-methoxy-2-methylimidazo[1,2-b]pyridazin-6-yl)-3-(piperidin-4-yl)cinnoline], with at most 100 nM.

With `Cc1cc(-c2ccc3nc(C4CCNCC4)nnc3c2)cc2cn(C)nc12` [Compound 16, 7-(2,7-dimethyl-2H-indazol-5-yl)-3-(piperidin-4-yl)-1,2,4-benzotriazine], the IC50 was 100 to 500 nM. Then `Cc1cn2cc(-c3nnc4cc(C5CC6CCC(C5)N6)ccc4n3)cc(F)c2n1` (stereo not drawn) [Compound 56, 7-(8-azabicyclo[3.2.1]oct-3-yl)-3-(8-fluoro-2-methylimidazo[1,2-a]pyridin-6-yl)-1,2,4-benzotriazine], with at most 100 nM; and `Cc1cn2nc(-c3cc(F)c4cc(C5CCN(CCCN(C)C)CC5)nnc4c3)cc(C)c2n1` [Compound 158, 3-{4-[7-(2,8-dimethylimidazo[1,2-b]pyridazin-6-yl)-5-fluorocinnolin-3-yl]piperidin-1-yl}-N,N-dimethylpropan-1-amine], with at most 100 nM; and `Cc1cn2nc(-c3cc(F)c4cc(C5CCNCC5)nnc4c3)cc(C3CC3)c2n1` [Compound 112, 7-(8-cyclopropyl-2-methylimidazo[1,2-b]pyridazin-6-yl)-5-fluoro-3-(piperidin-4-yl)cinnoline], with at most 100 nM. For `Cc1cn2cc(-c3cc(F)c4nc(C5CCNCC5)nnc4c3)cc2c(C)n1` [Compound 64, 7-(1,3-dimethylpyrrolo[1,2-a]pyrazin-7-yl)-5-fluoro-3-(piperidin-4-yl)-1,2,4-benzotriazine] the value was at most 100 nM; for `Cc1cn2nc(-c3cc(F)c4cc(C5CCN(CCn6cnc7ccccc76)CC5)nnc4c3)cc(C)c2n1` [Compound 159, 3-{1-[2-(1H-benzimidazol-1-yl)ethyl]piperidin-4-yl}-7-(2,8-dimethylimidazo[1,2-b]pyridazin-6-yl)-5-fluorocinnoline], at most 100 nM; for `Cc1cc(-c2cc(F)c3cc(C4=CCNCC4)nnc3c2)cc2cn(C)nc12` [Compound 55, 7-(2,7-dimethyl-2H-indazol-5-yl)-5-fluoro-3-(1,2,3,6-tetrahydropyridin-4-yl)cinnoline], at most 100 nM. On to `Cc1cn2nc(-c3cc(F)c4cc(C5C[C@H](C)N[C@@H](C)C5)nnc4c3)cc(C)c2n1` (stereo partly drawn) [Compound 87, 7-(2,8-dimethylimidazo[1,2-b]pyridazin-6-yl)-3-[(2S,6S)-2,6-dimethylpiperidin-4-yl]-5-fluorocinnoline], for which the IC50 is at most 100 nM. Then `Cn1cc2cc(-c3cc4c(F)cc(C5CCNCC5)cc4nn3)cc(F)c2n1` [Compound 151, 5-fluoro-3-(7-fluoro-2-methyl-2H-indazol-5-yl)-7-(piperidin-4-yl)cinnoline], with at most 100 nM.

`Cc1cc(-c2cc3cnc(C4CCNCC4)nc3cc2F)cc2cn(C)nc12` [Compound 39, 6-(2,7-dimethyl-2H-indazol-5-yl)-7-fluoro-2-(piperidin-4-yl)quinazoline] registered an IC50 of 1000 to 3000 nM.

On to `Cc1cn2nc(-c3cc(F)c4cc(N5CCC(C)(N(C)C)CC5)nnc4c3)cc(C)c2n1` [Compound 224, 1-[7-(2,8-dimethylimidazo[1,2-b]pyridazin-6-yl)-5-fluorocinnolin-3-yl]-N,N,4-trimethylpiperidin-4-amine], for which the IC50 was at most 100 nM.

In turn, `CCN1CCC(c2cc(F)c3cc(-c4cc(C)c5nn(C)cc5c4)nnc3c2)CC1` [Compound 183, 3-(2,7-dimethyl-2H-indazol-5-yl)-7-(1-ethylpiperidin-4-yl)-5-fluorocinnoline] registered an IC50 of at most 100 nM. `CCN1CCC(c2cc3c(F)cc(-c4cc(CC#N)c5nc(C)cn5n4)cc3nn2)CC1` [Compound 205, {6-[3-(1-ethylpiperidin-4-yl)-5-fluorocinnolin-7-yl]-2-methylimidazo[1,2-b]pyridazin-8-yl}acetonitrile] returned an IC50 of 100 to 500 nM. For `Cc1cc2oc(-c3cc(F)c4cc(C5CCNCC5)nnc4c3)nc2c(C)n1` [Compound 137, 7-(4,6-dimethyl[1,3]oxazolo[4,5-c]pyridin-2-yl)-5-fluoro-3-(piperidin-4-yl)cinnoline] the value was at most 100 nM. For the compound `CCN1CCC(c2ccc3nc(-c4ccc5nn(C)cc5c4)ccc3c2)CC1` [Compound 2, 6-(1-ethylpiperidin-4-yl)-2-(2-methyl-2H-indazol-5-yl)quinoline], the IC50 lay within 1000 to 3000 nM. `COCCOc1cc(-c2cc(F)c3nc(C4CCNCC4)ccc3c2)nn2cc(C)nc12` [Compound 53, 8-fluoro-6-[8-(2-methoxyethoxy)-2-methylimidazo[1,2-b]pyridazin-6-yl]-2-(piperidin-4-yl)quinoline] came in with an IC50 of 100 to 500 nM. Turning to `Cc1cc2oc(-c3cc(F)c4cc(C5CCN(C)CC5)nnc4c3)nc2c(C)n1` [Compound 214, 7-(4,6-dimethyl[1,3]oxazolo[4,5-c]pyridin-2-yl)-5-fluoro-3-(1-methylpiperidin-4-yl)cinnoline], the IC50 was in the range of 100 to 500 nM. In the case of `COc1cc(-c2nnc3cc(C4CCNCC4)ccc3n2)cc2cn(C)nc12` [Compound 52, 3-(7-methoxy-2-methyl-2H-indazol-5-yl)-7-(piperidin-4-yl)-1,2,4-benzotriazine], the IC50 is at most 100 nM.

In turn, `Cc1nc2ccc(-c3cc(F)c4cc(C5CCNCC5)nnc4c3)cn2n1` [Compound 94, 5-fluoro-7-(2-methyl[1,2,4]triazolo[1,5-a]pyridin-6-yl)-3-(piperidin-4-yl)cinnoline] displayed an IC50 of 100 to 500 nM.

`CCN1CC=C(c2cc(F)c3nc(-c4cc(F)c5nn(C)cc5c4)ccc3c2)CC1` [Compound 184, 6-(1-ethyl-1,2,3,6-tetrahydropyridin-4-yl)-8-fluoro-2-(7-fluoro-2-methyl-2H-indazol-5-yl)quinoline] gave an IC50 of at most 100 nM. The compound `Cc1cn2nc(-c3cc(F)c4cc(C5C[C@@H](C)N(C)[C@H](C)C5)nnc4c3)cc(C)c2n1` (stereo partly drawn) [Compound 124, 7-(2,8-dimethylimidazo[1,2-b]pyridazin-6-yl)-5-fluoro-3-[(25,6S)-1,2,6-trimethylpiperidin-4-yl]cinnoline] came in with an IC50 of at most 100 nM. As to `CCN1CCC(c2cc(F)c3cc(-c4cc(C)c5nc(C)cn5n4)nnc3c2)CC1` [Compound 186, 3-(2,8-dimethylimidazo[1,2-b]pyridazin-6-yl)-7-(1-ethylpiperidin-4-yl)-5-fluorocinnoline], the IC50 was at most 100 nM. For `Cc1cn2nc(-c3cc(F)c4cc(C5CCNCC5)nnc4c3)cc(C#N)c2n1` [Compound 108, 6-[5-fluoro-3-(piperidin-4-yl)cinnolin-7-yl]-2-methylimidazo[1,2-b]pyridazine-8-carbonitrile] the value was at most 100 nM. As to `Cc1cn2nc(-c3cc(F)c4cc(N5CC6CC5CN6C)nnc4c3)cc(C)c2n1` (stereo not drawn) [Compound 209, 7-(2,8-dimethylimidazo[1,2-b]pyridazin-6-yl)-5-fluoro-3-(5-methyl-2,5-diazabicyclo[2.2.1]heptan-2-yl)cinnoline], the IC50 was 100 to 500 nM. For `Cc1cn2nc(-c3cc(F)c4cc(C5CCNCC5)ncc4c3)cc(C)c2n1` [Compound 72, 7-(2,8-dimethylimidazo[1,2-b]pyridazin-6-yl)-5-fluoro-3-(piperidin-4-yl)isoquinoline] the value was at most 100 nM; for `CCN1CCC(c2cc3c(F)cc(-c4cc(C)c5nc(C)sc5c4)cc3nn2)CC1` [Compound 120, 7-(2,4-dimethyl-1,3-benzothiazol-6-yl)-3-(1-ethylpiperidin-4-yl)-5-fluorocinnoline], 1000 to 3000 nM. On to `Cc1cn2nc(-c3ccc4cc(C5CCNCC5)nnc4c3)cc(C)c2n1` [Compound 84, 7-(2,8-dimethylimidazo[1,2-b]pyridazin-6-yl)-3-(piperidin-4-yl)cinnoline], for which the IC50 was at most 100 nM. As for `Cc1cn2nc(-c3cc(F)c4cc(C5CCN(CCCn6cnc7ccccc76)CC5)nnc4c3)cc(C)c2n1` [Compound 145, 3-{1-[3-(1H-benzimidazol-1-yl)propyl]piperidin-4-yl}-7-(2,8-dimethylimidazo[1,2-b]pyridazin-6-yl)-5-fluorocinnoline], the half-maximal inhibitory concentration (IC50) is at most 100 nM. Consider `Cc1cn2nc(-c3cc(F)c4cc(C5CCCNCC5)nnc4c3)cc(C)c2n1` (stereo not drawn) [Compound 129, 3-(azepan-4-yl)-7-(2,8-dimethylimidazo[1,2-b]pyridazin-6-yl)-5-fluorocinnoline], for which the IC50 is at most 100 nM. Then `CCN1CCC(c2cc3c(F)cc(-c4cc(OC)c5nc(C)cn5n4)cc3nn2)CC1` [Compound 111, 3-(1-ethylpiperidin-4-yl)-5-fluoro-7-(8-methoxy-2-methylimidazo[1,2-b]pyridazin-6-yl)cinnoline], with at most 100 nM.
